Assay results reported in patent publication US10307413B2, “Tetrahydro- and dihydro-isoquinoline PRMT5 inhibitors and uses thereof” (Epizyme, Inc., priority 2013, dated 2019).
Read-outs that look alike come from different tables or passages of the source.

Columns and labels:
PRMT5/MEP50 = PRMT5/MEP50 (Homo sapiens (Human), UniProt O14744); assay: PRMT5 Biochemical Assay (PRMT5/MEP50 enzyme assay on peptide substrate, 3H-SAM Flashplate)
In short: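 Radiometric methylation of a biotin-tagged H4(1-15) peptide by human PRMT5/MEP50 from baculovirus/Sf9, with ³H-SAM incorporation read on streptavidin Flashplates. Buffer: Bicine pH 7.6, TCEP, BSG, Tween20; compound preincubated 30 min at 25 °C; stopped with 600 µM final unlabeled SAM. DMSO and SAH controls; IC50 from fitted % inhibition.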

[1] = test system: symmetric di-methyl arginine in Z-138 cells; assay: Z-138 Methylation Assay (In Cell Western for symmetric di-methyl arginine and DNA content); type: cell-based; details: Homo sapiens, read-out: ICW EC50
In short: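 In-cell western: symmetric di-methyl arginine signal ratioed to DRAQ5 DNA content after 96 h compound exposure of Z-138 cells seeded at 50,000 cells/mL.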

Z-138 cell line = assay: Z-138 Proliferation Assay (Cell Titer Glo, 5 days); type: cell-based; details: Homo sapiens, 120 h, Z-138 cells, 5 days, read-out: Proliferation EC50
In short: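 Viability via CellTiter-Glo luminescence (ATP) after 5-day incubation at 37 °C, 5% CO2. Compounds tested in triplicate, nine 3-fold steps, highest final concentration 20 μM in 0.2% DMSO; 50% inhibitory concentration by 4-parameter fit of normalized curves.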

PRMT5/MEP50, sequence (O14744 other isoform, or with tags, fused parts or gaps): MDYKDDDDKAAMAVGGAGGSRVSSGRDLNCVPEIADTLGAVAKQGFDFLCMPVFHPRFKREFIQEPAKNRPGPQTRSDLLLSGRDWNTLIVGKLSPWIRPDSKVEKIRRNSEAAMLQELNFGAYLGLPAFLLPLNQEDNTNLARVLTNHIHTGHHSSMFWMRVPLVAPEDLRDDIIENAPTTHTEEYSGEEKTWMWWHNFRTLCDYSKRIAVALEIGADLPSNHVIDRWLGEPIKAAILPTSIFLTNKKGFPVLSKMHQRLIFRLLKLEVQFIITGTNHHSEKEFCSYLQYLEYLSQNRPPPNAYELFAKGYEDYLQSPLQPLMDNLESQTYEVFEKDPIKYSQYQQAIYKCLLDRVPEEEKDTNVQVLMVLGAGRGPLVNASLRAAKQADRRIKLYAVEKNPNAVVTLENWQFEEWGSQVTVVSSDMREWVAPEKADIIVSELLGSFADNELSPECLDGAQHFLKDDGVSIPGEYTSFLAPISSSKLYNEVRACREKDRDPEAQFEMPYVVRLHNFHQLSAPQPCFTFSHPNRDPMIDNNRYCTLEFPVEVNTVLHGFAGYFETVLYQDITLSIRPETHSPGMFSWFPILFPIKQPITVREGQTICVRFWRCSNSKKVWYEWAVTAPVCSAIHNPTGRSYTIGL
PRMT5/MEP50, sequence (Q9BQA1 other isoform, or with tags, fused parts or gaps partner): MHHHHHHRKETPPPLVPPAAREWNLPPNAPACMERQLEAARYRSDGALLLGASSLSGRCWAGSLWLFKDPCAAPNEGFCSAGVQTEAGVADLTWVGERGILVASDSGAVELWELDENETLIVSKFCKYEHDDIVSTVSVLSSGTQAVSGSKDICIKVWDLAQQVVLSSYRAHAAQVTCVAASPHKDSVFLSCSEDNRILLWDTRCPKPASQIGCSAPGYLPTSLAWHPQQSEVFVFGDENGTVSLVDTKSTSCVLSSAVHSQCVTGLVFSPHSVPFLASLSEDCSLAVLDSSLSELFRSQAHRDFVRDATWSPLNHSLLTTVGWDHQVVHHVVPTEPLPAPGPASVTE

SMILES | IC50 (PRMT5/MEP50; PRMT5 biochemical assay) | EC50 ([1]; In Cell Western methylation) | EC50 (Z-138 cell line; Cell Titer Glo) | IC50 (PRMT5/MEP50) | EC50 [1] | EC50 (Z-138 cell line)
CN(C)c1nc(NC2COC2)cc(C(=O)NC[C@H](O)CN2CCc3ccccc3C2)n1 [Compound 494] | < 100 nM | < 100 nM | 101 to 1000 nM | – | – | –
CC(=O)N1CCC(Nc2cc(C(=O)NC[C@H](O)CN3CCc4ccc(C)cc4C3)ccn2)CC1 [Compound 669] | < 100 nM | < 100 nM | 101 to 1000 nM | – | – | –
COCCNCCOc1ccc2cc(C(=O)NC[C@H](O)CN3CCc4ccccc4C3)ccc2c1 [Compound 369] | – | – | – | < 100 nM | < 100 nM | 1000 to 10000 nM
CCC(=O)N1CCN(c2nc(NC3CNC3)cc(C(=O)NC[C@H](O)CN3CCc4ccccc4C3)n2)CC1 [Compound 484] | < 100 nM | < 100 nM | 1000 to 10000 nM | – | – | –
O=C(NC[C@H](O)CN1CCc2ccccc2C1)c1cc(NC2CC3(COC3)C2)ncn1 [Compound 557] | < 100 nM | < 100 nM | < 100 nM | – | – | –
CC(=O)N1CCC(Nc2cc(C(=O)NCC(O)C(C)N3CCc4ccccc4C3)ncn2)CC1 (stereo not drawn) [Compound 609] | 101 to 1000 nM | > 1000 nM | > 5000 nM | – | – | –
CN(C)CCOc1ccc(C(=O)NC[C@H](O)CN2CCc3ccccc3C2)cc1 [Compound 384] | – | – | – | < 100 nM | < 100 nM | 1000 to 10000 nM
CC(=O)N1CCC(Nc2cc(C(=O)NCC(C)CN3CCc4ccccc4C3)ncn2)CC1 (stereo not drawn) [Compound 658] | < 100 nM | < 100 nM | 101 to 1000 nM | – | – | –
CC(=O)N1CC(Nc2cc(C(=O)NC[C@H](O)CN3CCc4ccccc4C3)nc(N3CCOCC3)n2)C1 [Compound 443] | < 100 nM | < 100 nM | < 100 nM | – | – | –
CC(=O)Nc1ccc(C(=O)NCC(O)CN2CCc3ccccc3C2)cc1 (stereo not drawn) [Compound 23, 4-acetamido-N-(3-(3,4-dihydroisoquinolin-2(1H)-yl)-2-hydroxypropyl)benzamide] | – | – | – | 101 to 1000 nM | 101 to 1000 nM | > 20000 nM
COCCN1CCC(Nc2ccnc(C(=O)NC[C@H](O)CN3CCc4ccccc4C3)c2)CC1 [Compound 550] | < 100 nM | < 100 nM | 1000 to 10000 nM | – | – | –
CCC(=O)N1CC(Nc2cc(C(=O)NC[C@H](O)CN3CCc4ccccc4C3)ccn2)C1 [Compound 488] | < 100 nM | < 100 nM | < 100 nM | – | – | –
CC(=O)N1CC(Nc2cc(C(=O)NC[C@H](O)CN3CCc4ccccc4C3)nc(N3CCCCC3)n2)C1 [Compound 441] | < 100 nM | < 100 nM | < 100 nM | – | – | –
CC(C)(O)CNCC1CN2C=NC(C(=O)NC[C@H](O)CN3CCc4ccccc4C3)=CC2=N1 (stereo partly drawn) [Compound 603] | 101 to 1000 nM | > 1000 nM | 1000 to 10000 nM | – | – | –
CC(=O)N1CCC[C@H](Nc2cc(C(=O)NC[C@H](O)CN3CCc4ccccc4C3)ncn2)C1 [Compound 572] | < 100 nM | < 100 nM | 101 to 1000 nM | – | – | –
NC(=O)CN1CC(Nc2cc(C(=O)NC[C@H](O)CN3CCc4ccccc4C3)ncn2)C1 [Compound 621] | < 100 nM | 1000 to 10000 nM | 1000 to 10000 nM | – | – | –
CN1CCC(Nc2cc(C(=O)NC[C@H](O)CN3CCc4ccccc4C3)ncn2)CC1 [Compound 206] | – | – | – | < 100 nM | 101 to 1000 nM | 1000 to 10000 nM
CC(=O)N1CC(Nc2cc(C(=O)NC[C@H](O)CN3CCc4ccccc4C3)cnn2)C1 [Compound 629] | < 100 nM | 101 to 1000 nM | 1000 to 10000 nM | – | – | –
CC(=O)N1CCC(Nc2cc(C(=O)NCC(O)C(C)N3CCc4ccccc4C3)ccn2)CC1 (stereo not drawn) [Compound 692] | 101 to 1000 nM | 101 to 1000 nM | > 5000 nM | – | – | –
CN(c1cc(C(=O)NC[C@H](O)CN2CCc3ccccc3C2)ncn1)C1COC1 [Compound 448] | < 100 nM | > 1000 nM | > 20000 nM | – | – | –
Cc1cnc(NC2CCN(CC(F)(F)F)C2)cc1C(=O)NC[C@H](O)CN1CCc2ccccc2C1 (stereo partly drawn) [Compound 402] | < 100 nM | < 100 nM | 1000 to 10000 nM | – | – | –

SMILES | IC50 (PRMT5/MEP50; PRMT5 biochemical assay) | EC50 ([1]; In Cell Western methylation) | EC50 (Z-138 cell line; Cell Titer Glo) | IC50 (PRMT5/MEP50) | EC50 [1] | EC50 (Z-138 cell line)
CN(CCN)c1nc(NC2CNC2)cc(C(=O)NC[C@H](O)CN2CCc3ccccc3C2)n1 [Compound 481] | < 100 nM | 101 to 1000 nM | 1000 to 10000 nM | – | – | –
CCN(C)[C@H]1CC[C@@H](Nc2cc(C(=O)NC[C@H](O)CN3CCc4ccccc4C3)ncn2)CC1 [Compound 631] | < 100 nM | 101 to 1000 nM | > 5000 nM | – | – | –
CNCCOc1ccc2cc(C(=O)NC[C@H](O)CN3CCc4ccccc4C3)ccc2c1 [Compound 361] | – | – | – | 101 to 1000 nM | < 100 nM | 1000 to 10000 nM
CC(=O)N1CC(Nc2cc(C(=O)NC[C@H](O)CN3CCc4c(C)cccc4C3)ncn2)C1 [Compound 676] | < 100 nM | < 100 nM | 1000 to 10000 nM | – | – | –
CN1CCN(c2nc(NC3COC3)cc(C(=O)NC[C@H](O)CN3CCc4ccccc4C3)n2)CC1 [Compound 394] | – | – | – | < 100 nM | < 100 nM | < 100 nM
CCN(C)c1nc(NC2COC2)cc(C(=O)NC[C@H](O)CN2CCc3ccccc3C2)n1 [Compound 458] | < 100 nM | < 100 nM | < 100 nM | – | – | –
CCNCCOc1ccc(C(=O)NC[C@H](O)CN2CCc3ccccc3C2)cc1 [Compound 391] | – | – | – | < 100 nM | < 100 nM | 1000 to 10000 nM
O=C(NC[C@H](O)CN1CCc2ccccc2C1)c1cnnc(NC2CCOC2)c1 (stereo partly drawn) [Compound 544] | < 100 nM | < 100 nM | 101 to 1000 nM | – | – | –
CC(C)CC(=O)N1CC(Nc2cc(C(=O)NC[C@H](O)CN3CCc4ccccc4C3)ccn2)C1 [Compound 504] | < 100 nM | < 100 nM | < 100 nM | – | – | –
CSCCNc1cc(C(=O)NC[C@H](O)CN2CCc3ccccc3C2)ncn1 [Compound 554] | < 100 nM | < 100 nM | 101 to 1000 nM | – | – | –
CC(C)(C)c1nc(NC2CNC2)cc(C(=O)NC[C@H](O)CN2CCc3ccccc3C2)n1 [Compound 522] | < 100 nM | < 100 nM | 1000 to 10000 nM | – | – | –
O=C(NC[C@H](O)CN1CCc2ccccc2C1)c1cc(N[C@H]2CC[C@H](O)CC2)ncn1 [Compound 585] | < 100 nM | < 100 nM | 101 to 1000 nM | – | – | –
NCCOc1ccc2cc(C(=O)NC[C@H](O)CN3CCc4ccccc4C3)ccc2c1 [Compound 360] | – | – | – | 101 to 1000 nM | < 100 nM | 1000 to 10000 nM
O=C(NC[C@H](O)CN1CCc2ccccc2C1)c1cc(Nc2cc[nH]n2)ncn1 [Compound 431] | < 100 nM | < 100 nM | 1000 to 10000 nM | – | – | –
O=C(NC[C@H](O)CN1CCc2ccccc2C1)c1ccc(OCCCN2CCCCC2)cc1 [Compound 362] | – | – | – | 101 to 1000 nM | < 100 nM | 101 to 1000 nM
CCCC(=O)N1CCC(Nc2cc(C(=O)NC[C@H](O)CN3CCc4ccccc4C3)ncn2)CC1 [Compound 407] | < 100 nM | < 100 nM | < 100 nM | – | – | –
CC(=O)N1CCC(Nc2cc(C(=O)NC[C@H](O)CN3CCc4cc(C)ccc4C3)ncn2)CC1 [Compound 675] | < 100 nM | < 100 nM | 101 to 1000 nM | – | – | –
CSCCN1CC(Nc2cc(C(=O)NC[C@H](O)CN3CCc4ccccc4C3)ncn2)C1 [Compound 568] | < 100 nM | 101 to 1000 nM | 1000 to 10000 nM | – | – | –
CN(C[C@H](O)CN1CCc2ccccc2C1)C(=O)c1cc(NC2COC2)ncn1 [Compound 364] | – | – | – | 101 to 1000 nM | 101 to 1000 nM | 1000 to 10000 nM
N[C@H]1CC[C@H](Nc2cc(C(=O)NC[C@H](O)CN3CCc4ccccc4C3)ncn2)CC1 [Compound 595] | < 100 nM | < 100 nM | > 5000 nM | – | – | –
O=C(NC[C@H](O)CN1CCc2ccccc2C1)c1ccc2cccnc2c1O [Compound 344] | – | – | – | 101 to 1000 nM | > 1000 nM | 1000 to 10000 nM
